Among the data in PMC2192259 (The Journal of Experimental Medicine, 1995) are fragment found values, retold here.

“Also recorded” adds a separate entry of the source.

For this data set, the system named is 20S proteasome. Put plainly: 20S proteasome from BALB.SV cells in assay buffer. The settings on record: 37C, up to 24 h.

On to MDIGAYPHFMPTNLAGDPY, for which the fragment found entry is “YPHFMPTNL, major; also recorded: YPH- FMPTNL(ox)”.
